Test results taken from PubChem BioAssay AID248 (DTP/NCI, 2004).
Several values for one entry are separate records, joined by “and”; a condition that tells them apart may be missing. Equal values may be shown once. Inconclusive results and toxic doses are left out. Rule as the data show it: active = T/C of 150% or more; inactive = T/C below 125%.

Test system: L1210 leukemia ip in BDF1 mice, survival T/C
Test: NCI In Vivo Anticancer Drug Screen. Data for tumor model L1210 Leukemia (intraperitoneal) in B6D2F1 (BDF1) mice
Settings: endpoint: mean survival time, higher = longer survival
Procedure, shortened: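 Survival endpoint. Drug-treated group vs vehicle group, expressed as T divided by C. Tumor passaged by transplantation.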

Measured: T/C

CN(Cc1cnc2nc(N)nc(N)c2n1)c1c(Cl)cc(C(=O)NC(CCC(=O)O)C(=O)O)cc1Cl (configuration not stated)
inactive: dose: 0.05 mg/kg/injection, schedule: Q03HX024 (ip), vehicle: alkali diluted with saline 108 % of control | dose: 0.12 mg/kg/injection, schedule: Q01DX Z (ip), vehicle: saline 103 % of control | dose: 0.2 mg/kg/injection, schedule: Q03HX024 (ip), vehicle: alkali diluted with saline 121 % of control | dose: 0.31 mg/kg/injection, schedule: Q03HX008 (ip), vehicle: carboxymethylcellulose (CMC) 114 % of control | dose: 0.39 mg/kg/injection, schedule: Q03HX024 (ip), vehicle: carboxymethylcellulose (CMC) 111 % of control | dose: 0.5 mg/kg/injection, schedule: Q01DX Z (ip), vehicle: saline 106 % of control | dose: 0.5 mg/kg/injection, schedule: Q01DX Z (sc), vehicle: alkali diluted with saline 102 % of control | dose: 0.6 mg/kg/injection, schedule: Q## X008 (ip), vehicle: alkali diluted with saline 106 % of control | dose: 0.63 mg/kg/injection, schedule: Q03HX008 (ip), vehicle: carboxymethylcellulose (CMC) 119 % of control | dose: 0.78 mg/kg/injection, schedule: Q03HX024 (ip), vehicle: carboxymethylcellulose (CMC) 114 % of control | dose: 1.0 mg/kg/injection, schedule: Q01DX Z (im), vehicle: alkali diluted with saline 107 % of control | dose: 1.0 mg/kg/injection, schedule: Q01DX Z (ip), vehicle: saline 122 % of control | dose: 1.0 mg/kg/injection, schedule: Q01DX Z (sc), vehicle: alkali diluted with saline 95 % of control | dose: 2.5 mg/kg/injection, schedule: Q01DX005 (ip), vehicle: carboxymethylcellulose (CMC) 117 % of control | dose: 2.5 mg/kg/injection, schedule: Q01DX Z (im), vehicle: alkali diluted with saline 102 % of control | dose: 2.5 mg/kg/injection, schedule: Q01DX Z (sc), vehicle: alkali diluted with saline 106 % of control | dose: 4.0 mg/kg/injection, schedule: Q## X008 (ip), vehicle: alkali diluted with saline 104 % of control | dose: 5.0 mg/kg/injection, schedule: Q01DX005 (ip), vehicle: carboxymethylcellulose (CMC) 120 % of control | dose: 5.0 mg/kg/injection, schedule: Q01DX009 (ip), vehicle: carboxymethylcellulose (CMC) 121 % of control | dose: 5.0 mg/kg/injection, schedule: Q01DX009 (sc), vehicle: carboxymethylcellulose (CMC) 115 % of control | dose: 5.0 mg/kg/injection, schedule: Q01DX Z (im), vehicle: alkali diluted with saline 112 % of control | dose: 5.0 mg/kg/injection, schedule: Q01DX Z (oral), vehicle: alkali diluted with saline 120 % of control | dose: 5.0 mg/kg/injection, schedule: Q01DX Z (sc), vehicle: alkali diluted with saline 105 % of control | dose: 6.25 mg/kg/injection, schedule: Q03HX024 (ip), vehicle: carboxymethylcellulose (CMC) 116 % of control | dose: 10.0 mg/kg/injection, schedule: Q01DX006 (iv), vehicle: alkali diluted with saline 106 % of control | dose: 10.0 mg/kg/injection, schedule: Q01DX Z (oral), vehicle: alkali diluted with saline 120 % of control | dose: 12.5 mg/kg/injection, schedule: Q03HX024 (ip), vehicle: carboxymethylcellulose (CMC) 122 % of control | dose: 15.0 mg/kg/injection, schedule: Q## X008 (ip), vehicle: alkali diluted with saline 114 % of control | dose: 20.0 mg/kg/injection, schedule: Q01DX006 (iv), vehicle: alkali diluted with saline 123 % of control | dose: 20.0 mg/kg/injection, schedule: Q01DX Z (oral), vehicle: alkali diluted with saline 115 % of control | dose: 20.0 mg/kg/injection, schedule: Q#A X Z (ip), vehicle: olive oil, sesame oil, peanut oil 116 % of control | dose: 25.0 mg/kg/injection, schedule: Q04DX003 (ip), vehicle: alkali diluted with saline 112 % of control | dose: 25.0 mg/kg/injection, schedule: Q04DX003 (ip), vehicle: carboxymethylcellulose (CMC) 117 % of control | dose: 25.0 mg/kg/injection, schedule: Q## X003 (ip), vehicle: other 106 % of control | dose: 25.0 mg/kg/injection, schedule: Q## X016 (ip), vehicle: other 115 % of control | dose: 30.0 mg/kg/injection, schedule: Q03DX Z (ip), vehicle: methylcellulose (MC) 122 % of control | dose: 40.0 mg/kg/injection, schedule: Q01DX Z (oral), vehicle: alkali diluted with saline 102 % of control | dose: 50.0 mg/kg/injection, schedule: Q## X003 (ip), vehicle: other 124 % of control | dose: 50.0 mg/kg/injection, schedule: Q## X016 (ip), vehicle: other 121 % of control | dose: 70.0 mg/kg/injection, schedule: Q01DX001 (ip), vehicle: methylcellulose (MC) 116 % of control | dose: 70.0 mg/kg/injection, schedule: Q01DX Z (ip), vehicle: clinical formulation 103 % of control | dose: 70.0 mg/kg/injection, schedule: Q07DX Z (ip), vehicle: methylcellulose (MC) 116 % of control | dose: 80.0 mg/kg/injection, schedule: Q01DX Z (im), vehicle: alkali diluted with saline 113 % of control | dose: 80.0 mg/kg/injection, schedule: Q01DX Z (oral), vehicle: alkali diluted with saline 94 % of control | dose: 80.0 mg/kg/injection, schedule: Q01DX Z (sc), vehicle: alkali diluted with saline 112 % of control | dose: 90.0 mg/kg/injection, schedule: Q01DX Z (ip), vehicle: saline 94 % of control | dose: 100.0 mg/kg/injection, schedule: Q01DX001 (sc), vehicle: carboxymethylcellulose (CMC) 111 % of control | dose: 100.0 mg/kg/injection, schedule: Q04DX003 (ip), vehicle: alkali diluted with saline 124 % of control | dose: 120.0 mg/kg/injection, schedule: Q01DX001 (ip), vehicle: carboxymethylcellulose (CMC) 117 % of control | dose: 120.0 mg/kg/injection, schedule: Q## X008 (ip), vehicle: other 112 % of control | dose: 140.0 mg/kg/injection, schedule: Q01DX001 (ip), vehicle: methylcellulose (MC) 116 % of control | dose: 140.0 mg/kg/injection, schedule: Q01DX Z (ip), vehicle: clinical formulation 110 % of control | dose: 140.0 mg/kg/injection, schedule: Q07DX Z (ip), vehicle: methylcellulose (MC) 123 % of control | dose: 200.0 mg/kg/injection, schedule: Q01DX001 (sc), vehicle: carboxymethylcellulose (CMC) 114 % of control | dose: 200.0 mg/kg/injection, schedule: Q01DX001 (sc), vehicle: other 121 % of control | dose: 240.0 mg/kg/injection, schedule: Q01DX001 (ip), vehicle: alkali diluted with saline 115 % of control | dose: 240.0 mg/kg/injection, schedule: Q01DX001 (ip), vehicle: other 113 % of control | dose: 240.0 mg/kg/injection, schedule: Q## X008 (ip), vehicle: other 112 % of control | dose: 285.0 mg/kg/injection, schedule: Q01DX001 (ip), vehicle: carboxymethylcellulose (CMC) 110 % of control | dose: 400.0 mg/kg/injection, schedule: Q01DX001 (ip), vehicle: olive oil, sesame oil, peanut oil 114 % of control | dose: 400.0 mg/kg/injection, schedule: Q01DX001 (sc), vehicle: other 121 % of control | dose: 400.0 mg/kg/injection, schedule: Q07DX Z (ip), vehicle: olive oil, sesame oil, peanut oil 97 % of control | dose: 434.0 mg/kg/injection, schedule: Q01DX001 (ip), vehicle: carboxymethylcellulose (CMC) 121 % of control | dose: 480.0 mg/kg/injection, schedule: Q01DX001 (ip), vehicle: alkali diluted with saline 122 % of control | dose: 560.0 mg/kg/injection, schedule: Q01DX001 (ip), vehicle: methylcellulose (MC) 123 % of control | dose: 800.0 mg/kg/injection, schedule: Q01DX001 (ip), vehicle: olive oil, sesame oil, peanut oil 109 % of control and 120 % of control | dose: 800.0 mg/kg/injection, schedule: Q07DX Z (ip), vehicle: olive oil, sesame oil, peanut oil 106 % of control | dose: 1200.0 mg/kg/injection, schedule: Q01DX001 (ip), vehicle: olive oil, sesame oil, peanut oil 115 % of control and 122 % of control | dose: 1200.0 mg/kg/injection, schedule: Q07DX Z (ip), vehicle: olive oil, sesame oil, peanut oil 95 % of control | dose: 1600.0 mg/kg/injection, schedule: Q04DX003 (ip), vehicle: alkali diluted with saline 98 % of control | dose: 1600.0 mg/kg/injection, schedule: Q07DX Z (ip), vehicle: olive oil, sesame oil, peanut oil 101 % of control
active: dose: 3.0 mg/kg/injection, schedule: Q01DX Z (ip), vehicle: carboxymethylcellulose (CMC) 159 % of control | dose: 3.0 mg/kg/injection, schedule: Q01DX Z (ip), vehicle: saline 169 % of control | dose: 5.0 mg/kg/injection, schedule: Q#A X Z (ip), vehicle: methylcellulose (MC) 162 % of control | dose: 6.0 mg/kg/injection, schedule: Q01DX Z (ip), vehicle: carboxymethylcellulose (CMC) 161 % of control | dose: 9.0 mg/kg/injection, schedule: Q01DX Z (ip), vehicle: clinical formulation 157 % of control | dose: 10.0 mg/kg/injection, schedule: Q01DX Z (im), vehicle: alkali diluted with saline 159 % of control | dose: 10.0 mg/kg/injection, schedule: Q01DX Z (ip), vehicle: saline 167 % of control | dose: 10.0 mg/kg/injection, schedule: Q01DX Z (sc), vehicle: alkali diluted with saline 159 % of control | dose: 20.0 mg/kg/injection, schedule: Q01DX007 (ip), vehicle: other 160 % of control | dose: 20.0 mg/kg/injection, schedule: Q01DX009 (ip), vehicle: carboxymethylcellulose (CMC) 153 % of control | dose: 30.0 mg/kg/injection, schedule: Q01DX Z (ip), vehicle: carboxymethylcellulose (CMC) 159 % of control | dose: 40.0 mg/kg/injection, schedule: Q01DX007 (ip), vehicle: other 163 % of control | dose: 40.0 mg/kg/injection, schedule: Q01DX009 (ip), vehicle: carboxymethylcellulose (CMC) 161 % of control | dose: 40.0 mg/kg/injection, schedule: Q01DX Z (ip), vehicle: methylcellulose (MC) 169 % of control | dose: 67.5 mg/kg/injection, schedule: Q01DX Z (ip), vehicle: saline 150 % of control | dose: 80.0 mg/kg/injection, schedule: Q01DX005 (ip), vehicle: carboxymethylcellulose (CMC) 158 % of control | dose: 80.0 mg/kg/injection, schedule: Q01DX006 (iv), vehicle: alkali diluted with saline 165 % of control | dose: 120.0 mg/kg/injection, schedule: Q03DX Z (ip), vehicle: methylcellulose (MC) 153 % of control | dose: 200.0 mg/kg/injection, schedule: Q04DX003 (ip), vehicle: carboxymethylcellulose (CMC) 157 % of control | dose: 200.0 mg/kg/injection, schedule: Q## X016 (ip), vehicle: other 162 % of control | dose: 400.0 mg/kg/injection, schedule: Q04DX003 (ip), vehicle: alkali diluted with saline 166 % of control | dose: 800.0 mg/kg/injection, schedule: Q04DX003 (ip), vehicle: alkali diluted with saline 168 % of control | dose: 800.0 mg/kg/injection, schedule: Q## X003 (ip), vehicle: other 169 % of control | dose: 800.0 mg/kg/injection, schedule: Q## X016 (ip), vehicle: other 165 % of control | dose: 875.0 mg/kg/injection, schedule: Q01DX001 (ip), vehicle: alkali diluted with saline 158 % of control | dose: 960.0 mg/kg/injection, schedule: Q01DX001 (ip), vehicle: carboxymethylcellulose (CMC) 158 % of control
